Source: ChEMBL document CHEMBL4715871, “4-Acyl Pyrroles as Dual BET-BRD7/9 Bromodomain Inhibitors Address BETi Insensitive Human Cancer Cell Lines” (J Med Chem, 2020)
Calls of active or inactive are those of the source. The rule behind the calls is not given here.

Legend:
[1] = tested on: HL-60; assay: Growth inhibition of human HL60 cells after 72 hrs by CellTiter 96S AQeous non-radioactive cell proliferation assay; assay type: functional
[2] = tested on: MCF7; assay: Growth inhibition of human MCF7 cells after 72 hrs by CellTiter 96S AQeous non-radioactive cell proliferation assay; assay type: functional
[3] = tested on: SK-MEL-5; assay: Growth inhibition of human SK-MEL-5 cells after 72 hrs by CellTiter 96S AQeous non-radioactive cell proliferation assay; assay type: functional
[4] = organism: Homo sapiens; assay: Selectivity index, ratio of Kd for BRD7 (unknown origin) to BRD4 BD1 (unknown origin) by bromoKdELECT Discover assay
[5] = target: T1, Bromodomain-containing protein 4 (Homo sapiens, UniProt O60885); assay: Binding affinity to BRD4 BD1 (unknown origin) at 25 degree C by ITC analysis
[6] = organism: Homo sapiens; assay: Selectivity index, ratio of Kd for BRD9 (unknown origin) to BRD4 BD1 (unknown origin) by bromoKdELECT Discover assay
[7] = organism: Homo sapiens; assay: Selectivity index, ratio of Kd for BRPF1B (unknown origin) to BRD4 BD1 (unknown origin) by bromoKdELECT Discover assay
[8] = target: T2, Bromodomain-containing protein 9 (Homo sapiens, UniProt Q9H8M2); assay: Binding affinity to human partial length BRD9 (R130 to V259 residues) by bromoKdELECT Discover assay
T2 sequence (Q9H8M2 whole entry): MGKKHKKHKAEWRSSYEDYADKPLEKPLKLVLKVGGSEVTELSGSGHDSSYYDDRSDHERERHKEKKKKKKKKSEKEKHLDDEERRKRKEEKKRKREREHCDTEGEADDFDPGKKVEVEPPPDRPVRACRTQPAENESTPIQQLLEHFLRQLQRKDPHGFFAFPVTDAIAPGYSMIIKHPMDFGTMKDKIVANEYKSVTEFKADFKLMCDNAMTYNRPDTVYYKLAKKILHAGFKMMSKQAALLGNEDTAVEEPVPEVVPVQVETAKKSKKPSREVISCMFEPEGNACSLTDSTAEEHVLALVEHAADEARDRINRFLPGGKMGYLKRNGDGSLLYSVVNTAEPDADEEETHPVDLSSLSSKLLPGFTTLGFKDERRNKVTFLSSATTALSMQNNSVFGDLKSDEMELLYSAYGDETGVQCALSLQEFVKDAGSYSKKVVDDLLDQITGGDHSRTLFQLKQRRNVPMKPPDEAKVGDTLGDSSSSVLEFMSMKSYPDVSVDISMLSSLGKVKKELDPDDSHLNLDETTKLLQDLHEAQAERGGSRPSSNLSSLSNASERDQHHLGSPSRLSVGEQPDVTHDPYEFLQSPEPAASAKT

[9] = target: T1, Bromodomain-containing protein 4; assay: Binding affinity to human BRD4 BD1 (N44 to E168 aa residues) by bromoKdELECT Discover assay
[10] = target: T1, Bromodomain-containing protein 4; assay: Binding affinity to BRD4 BD1 (unknown origin) at 15 degree C by ITC analysis
[11] = target: T1, Bromodomain-containing protein 4; assay: Binding affinity to BRD4 BD1 (unknown origin) at 37 degree C by ITC analysis
[12] = tested on: SK-MEL-5; assay: Cytotoxicity against human SK-MEL-5 cells after 72 hrs by CellTiter 96S AQeous non-radioactive cell proliferation assay; assay type: functional; conditions: read-out: LC50 (the source's name)
[13] = tested on: SNB-75; assay: Growth inhibition of human SNB-75 cells after 72 hrs by CellTiter 96S AQeous non-radioactive cell proliferation assay; assay type: functional
[14] = Cytotoxicity against human A498 cells after 72 hrs by CellTiter 96S AQeous non-radioactive cell proliferation assay; assay type: functional; conditions: read-out: LC50 (the source's name)
[15] = tested on: UACC-62; assay: Growth inhibition of human UACC-62 cells after 72 hrs by CellTiter 96S AQeous non-radioactive cell proliferation assay; assay type: functional
[16] = tested on: LOX IMVI; assay: Cytotoxicity against human LOX-IMVI cells after 72 hrs by CellTiter 96S AQeous non-radioactive cell proliferation assay; assay type: functional; conditions: read-out: LC50 (the source's name)
[17] = tested on: NCI-H522; assay: Growth inhibition of human NCI-H522 cells after 72 hrs by CellTiter 96S AQeous non-radioactive cell proliferation assay; assay type: functional
[18] = target: T1, Bromodomain-containing protein 4; assay: Binding affinity to human BRD4 BD1 (N44 to E168 aa residues) at 10 uM by bromoKdELECT Discover assay

SMILES: Cc1cc(=O)n(C)c2cc(N3C(=O)CC[C@H](NS(=O)(=O)CC(C)C)[C@H]3c3ccc(Cl)cc3)ccc12
- GI50 ([1]; Homo sapiens, HL-60): 5.03 µM

SMILES: Cc1sc2c(c1C)C(c1ccc(Cl)cc1)=N[C@@H](CC(=O)OC(C)(C)C)c1nnc(C)n1-2
- GI50 [2]: > 50 µM
- GI50 [3]: > 40 µM
- GI50 [1]: 0.021 µM

SMILES: CCc1c(C(=O)Nc2cc(S(=O)(=O)N(CC)CC)ccc2O)[nH]c(C)c1C(C)=O
- GI50 ([1]; Homo sapiens, HL-60): 17 µM

SMILES: COc1ccc(S(=O)(=O)N2CCOCC2)cc1NC(=O)c1[nH]c(C)c2c1CCCCC2=O
- Ratio [4]: 1.4
- GI50 ([2]; Homo sapiens, MCF7): 7.67 µM
- Kd [5]: 0.08 µM
- Ratio [6]: 1.1
- Ratio [7]: 8.7
- GI50 ([3]; Homo sapiens, SK-MEL-5): 6.8 µM
- GI50 ([1]; Homo sapiens, HL-60): 0.17 µM

SMILES: CCc1c(C(=O)NCc2c(O)ccc3cccc(O)c23)[nH]c(C)c1C(C)=O
- GI50 ([2]; Homo sapiens, MCF7): 4.2 µM
- Kd ([8]; read-out: Kd): 2.9 µM
- GI50 ([3]; Homo sapiens, SK-MEL-5): 4.2 µM
- Kd [9]: > 4 µM
- GI50 ([1]; Homo sapiens, HL-60): 1.3 µM

SMILES: CCN(CC)S(=O)(=O)c1ccc(O)c(NC(=O)c2[nH]c(C)c3c2CCCCC3=O)c1
- GI50 ([2]; Homo sapiens, MCF7): > 40 µM
- Kd [10]: < 0.01 µM
- Kd [11]: 0.17 µM
- Kd [5]: 0.07 µM
- GI50 ([3]; Homo sapiens, SK-MEL-5): > 80 µM
- GI50 ([1]; Homo sapiens, HL-60): > 40 µM

SMILES: CCC(=O)N1CCOc2c(cc(-c3ccc(OC)c(OC)c3)cc2OC[C@H]2CCCN(C)C2)C1
- GI50 ([2]; Homo sapiens, MCF7): > 50 µM
- Kd [8]: Not Active
- GI50 ([3]; Homo sapiens, SK-MEL-5): > 50 µM
- GI50 ([1]; Homo sapiens, HL-60): > 50 µM

SMILES: CC(=O)c1cc(-c2cc(C(=O)NC3CC3)ccc2C)c2ncccn12
- GI50 ([2]; Homo sapiens, MCF7): 4.49 µM
- Kd [8]: Not Active
- GI50 ([3]; Homo sapiens, SK-MEL-5): 2.77 µM
- GI50 ([1]; Homo sapiens, HL-60): 1.33 µM

SMILES: COc1ccc(S(=O)(=O)N2CCCCC2)cc1NC(=O)c1[nH]c(C)c2c1CCCCC2=O
- GI50 ([2]; Homo sapiens, MCF7): 4.06 µM
- Kd [5]: 0.05 µM
- CC50 [12]: 12.2 µM
- GI50 [13]: 0.141 µM
- CC50 [14]: 19.7 µM
- GI50 ([3]; Homo sapiens, SK-MEL-5): 6.79 µM
- GI50 [15]: 0.355 µM
- CC50 [16]: 8.17 µM
- GI50 [17]: 0.372 µM
- GI50 ([1]; Homo sapiens, HL-60): 0.491 µM

SMILES: COc1ccc(S(=O)(=O)N2CC3(COC3)C2)cc1NC(=O)c1[nH]c(C)c2c1CCCCC2=O
- GI50 ([2]; Homo sapiens, MCF7): 5.76 µM
- Kd [5]: 0.26 µM
- GI50 ([3]; Homo sapiens, SK-MEL-5): 20.8 µM
- GI50 ([1]; Homo sapiens, HL-60): 0.821 µM

SMILES: CCN(CC)S(=O)(=O)c1ccc(OC)c(NC(=O)c2[nH]c(C)c3c2CCCCC3=O)c1
- GI50 ([2]; Homo sapiens, MCF7): 6.84 µM
- Kd [5]: 0.14 µM
- GI50 ([3]; Homo sapiens, SK-MEL-5): 16.3 µM
- GI50 ([1]; Homo sapiens, HL-60): 1.36 µM

SMILES: COc1ccc(S(=O)(=O)N2CCCCC2)cc1NC(=O)c1c2c(c(C)n1C)C(=O)CCCC2
- GI50 ([2]; Homo sapiens, MCF7): > 10 µM
- Activity [18]: inactive
- GI50 ([3]; Homo sapiens, SK-MEL-5): > 10 µM
- GI50 ([1]; Homo sapiens, HL-60): > 10 µM

SMILES: COc1ccc(S(=O)(=O)N2CCN(C)CC2)cc1NC(=O)c1[nH]c(C)c2c1CCCCC2=O
- GI50 ([2]; Homo sapiens, MCF7): > 25 µM
- Kd [5]: 0.42 µM
- GI50 ([3]; Homo sapiens, SK-MEL-5): > 20 µM
- GI50 ([1]; Homo sapiens, HL-60): 2.08 µM

SMILES: COc1ccc(S(=O)(=O)N2CCCCCC2)cc1NC(=O)c1[nH]c(C)c2c1CCCCC2=O
- GI50 ([2]; Homo sapiens, MCF7): 3 µM
- Kd [5]: 0.18 µM
- GI50 ([3]; Homo sapiens, SK-MEL-5): 6.85 µM
- GI50 ([1]; Homo sapiens, HL-60): 0.565 µM
